From patent publication US9073830B2 (Hyundai Pharm Co., Ltd., priority 2011, dated 2015)

Assays:
mouse 11β-HSD1 = molecular target: T1, mouse 11β-HSD1 (Mus musculus, UniProt P50172); assay: Enzyme activity analysis on mouse 11β-HSD1 (HTRF cortisol, liver microsomes); type: biochemical; conditions: second value of cell
T1 construct: 100 ug/ml human/mouse liver microsomes; from tissue; host or cells: mouse liver microsomes
Method in brief: (§1)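 Cortisol generated by mouse or human liver microsome 11β-HSD1 during 2 h at 37° C., measured by HTRF competition (cryptate anti-cortisol antibody, d2-cortisol, 2 h room temperature) against a cortisol standard curve. IC50 from percent inhibition versus no-compound control.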

human 11β-HSD1 = molecular target: T2, human 11β-HSD1 (Homo sapiens, UniProt P28845); assay: Enzyme activity analysis on human 11β-HSD1 (HTRF cortisol, liver microsomes); type: biochemical; conditions: first value of cell
T2 construct: 100 ug/ml human/mouse liver microsomes; from tissue; host or cells: human liver microsomes
Method in brief: as §1

glucocorticoid receptor = molecular target: T3, glucocorticoid receptor (Homo sapiens, UniProt P04150); assay: Competitive binding of glucocorticoid receptor (LanthaScreen TR-FRET); conditions: final concentration 10 uM
T3 construct: 4× GR-LBD up to 4 nM, and 4× Tb anti-GST Antibody up to 8 nM; purchased Invitrogen PV6040
T3 sequence (P04150 524-758 limits assumed): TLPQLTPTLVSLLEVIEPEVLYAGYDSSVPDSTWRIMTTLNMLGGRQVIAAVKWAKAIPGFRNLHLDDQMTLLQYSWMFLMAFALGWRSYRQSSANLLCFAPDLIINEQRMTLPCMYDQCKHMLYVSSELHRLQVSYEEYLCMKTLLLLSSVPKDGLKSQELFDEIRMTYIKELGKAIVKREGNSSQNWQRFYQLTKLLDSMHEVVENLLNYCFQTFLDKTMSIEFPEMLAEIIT
Protocol: In order to confirm the selective inhibitory ability of 11β-HSD1 inhibitor, competitive binding between 11β-HSD1 inhibitor and glucocorticoid ligand was tested by using LanthaScreen TR-FRET Glucocorticoid Receptor Competitive Binding Assay (Invitrogen, PV6040). The test material was dissolved in DMSO (Sigma, 276855) up to a 100× concentration of its final concentration (10 uM), and then Complete Nuclear Receptor Buffer F (1× stabilizing peptide, 5 mM DTT, Nuclear Receptor Buffer F) was used to dilute the test material up to a concentration of 2×, 4× Fluormone™ GS1 Green up to 20 nM, 4× GR-LBD up to 4 nM, and 4× Tb anti-GST Antibody up to 8 nM.
In order to obtain 60 μl of a final product through a reaction, on a 96-well plate, 2× test material 30 μl, 4× Fluormone™ GS1 Green 15 μl, and 4× GR-LBD/Tb anti-GST Antibody 15 μl were mixed, and reacted for 1 hour. In a positive control group, instead of the test material, Dexamethasone (Sigma, D1756), known as a ligand for glucocorticoid receptor, was used, and in a maximum active control group, DMSO was used, instead of the test material. In a negative control group, instead of the test material, DMSO was used, instead of Fluormone™ GS1 Green, Complete Nuclear Receptor Buffer F was used. On a 384-well white plate, 20 μl each was plated. By using Time-Resolved program in Flexstation3, a fluorescence value was read after excitation ([…]), emission (515 nM/486 nM), Delay time (100 μs), and Integration time (1500 μs) were programmed. By using the obtained value, a value of 515 nM/486 nM was calculated, from which the value in the negative control group was subtracted. The degree of binding of the test material to glucocorticoid receptor of was calculated by the active value of the test material with respect to the active value (100%) in the maximum active control group.

T2 sequence (P28845 whole entry): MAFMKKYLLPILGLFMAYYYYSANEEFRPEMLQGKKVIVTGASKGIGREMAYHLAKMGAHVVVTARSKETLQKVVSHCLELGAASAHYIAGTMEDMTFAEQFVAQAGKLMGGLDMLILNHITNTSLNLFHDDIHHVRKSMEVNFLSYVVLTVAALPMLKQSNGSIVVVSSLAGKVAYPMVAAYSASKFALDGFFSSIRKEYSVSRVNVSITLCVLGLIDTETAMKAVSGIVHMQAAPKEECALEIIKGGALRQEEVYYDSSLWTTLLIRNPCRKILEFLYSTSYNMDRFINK
T1 sequence (P50172 whole entry): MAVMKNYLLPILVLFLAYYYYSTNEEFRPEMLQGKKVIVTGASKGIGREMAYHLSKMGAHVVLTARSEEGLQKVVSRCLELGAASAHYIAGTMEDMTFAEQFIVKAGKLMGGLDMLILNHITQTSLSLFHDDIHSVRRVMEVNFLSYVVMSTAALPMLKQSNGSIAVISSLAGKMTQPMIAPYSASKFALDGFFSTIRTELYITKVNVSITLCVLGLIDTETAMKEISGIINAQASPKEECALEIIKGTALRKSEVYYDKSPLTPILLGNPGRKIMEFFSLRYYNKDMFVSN

Row | Compound | IC50 (mouse 11β-HSD1) [µM] | IC50 (human 11β-HSD1) [µM] | binding to glucocorticoid receptor (glucocorticoid receptor)
1 | CC(C)(NS(=O)(=O)c1ccccc1[N+](=O)[O-])C(=O)NC1C2CC3CC(C2)CC1C3 (stereo not shown) [compound 43, N-(adamantane-2-yl)-2-methyl-2-(2-nitrophenylsulfonamido)propanamide] | 0.085 | 0.016 | did not bind to glucocorticoid receptor
2 | CC(C)(NS(=O)(=O)c1ccccc1Cl)C(=O)NC1C2CC3CC1CC(C(N)=O)(C3)C2 (stereo not shown) [compound 83, N-4-(2-(2-chlorophenylsulfonamido)-2-methylpropanamido)adamantane-1-carboxyamide] | 0.018 | 0.009 | did not bind to glucocorticoid receptor
3 | CC(C)(NS(=O)(=O)c1ccccc1Br)C(=O)NC1C2CC3CC1CC(C(N)=O)(C3)C2 (stereo not shown) [compound 84, N-4-(2-(2-bromophenylsulfonamido)-2-methylpropanamido)adamantane-1-carboxyamide] | 0.008 | 0.011 | did not bind to glucocorticoid receptor
4 | CC(C)(NS(=O)(=O)c1ccccc1F)C(=O)NC1C2CC3CC1CC(C(N)=O)(C3)C2 (stereo not shown) [compound 85, N-4-(2-(2-fluorophenylsulfonamido)-2-methylpropanamido)adamantane-1-carboxyamide] |  | 0.039 | did not bind to glucocorticoid receptor
5 | CC(C)(NS(=O)(=O)c1cccc(Cl)c1Cl)C(=O)NC1C2CC3CC1CC(C(N)=O)(C3)C2 (stereo not shown) [compound 87, N-4-(2-(2,3-dichlorophenylsulfonamido)-2-methylpropanamido)adamantane-1-carboxyamide] | 0.007 | 0.005 | did not bind to glucocorticoid receptor
6 | CC(C)(NS(=O)(=O)c1c(F)cccc1F)C(=O)NC1C2CC3CC1CC(C(N)=O)(C3)C2 (stereo not shown) [compound 89, N-4-(2-(2,6-difluorophenylsulfonamido)-2-methylpropanamido)adamantane-1-carboxyamide] |  |  | did not bind to glucocorticoid receptor
7 | CC(C)(NS(=O)(=O)c1ccccc1OC(F)(F)F)C(=O)NC1C2CC3CC1CC(C(N)=O)(C3)C2 (stereo not shown) [compound 90, N-4-(2-(2-trifluoromethoxyphenylsulfonamido)-2-methylpropanamido)adamantane-1-carboxyamide] | 0.03 | 0.017 | did not bind to glucocorticoid receptor
8 | NC(=O)C12CC3CC(C1)C(NC(=O)C1(NS(=O)(=O)c4ccccc4N)CCC1)C(C3)C2 (stereo not shown) [compound 221, N-4-(1-(2-aminophenylsulfonamido)cyclobutanecarboxyamido)adamantane-1-carboxyamide] | 0.151 | 0.079 | 
9 | CN(C1(C(=O)NC2C3CC4CC2CC(C(N)=O)(C4)C3)CCC1)S(=O)(=O)c1ccccc1N (stereo not shown) [compound 222, N-4-(1-(N-methyl-2-aminophenylsulfonamido)cyclobutanecarboxyamido)adamantane-1-carboxyamide] | 0.004 | 0.005 | 
10 | CN(C(C)(C)C(=O)NC1C2CC3CC1CC(C(N)=O)(C3)C2)S(=O)(=O)c1ccccc1N (stereo not shown) [compound 223, N-4-(2-(2-amino-N-methylphenylsulfonamido)-2-methylpropanamido)adamantane-1-carboxyamide] | 0.023 | 0.011 | 
11 | CCN(C(C)(C)C(=O)NC1C2CC3CC1CC(C(N)=O)(C3)C2)S(=O)(=O)c1ccccc1N (stereo not shown) [compound 224, N-4-(2-(2-amino-N-ethylphenylsulfonamido)-2-methylpropanamido)adamantane-1-carboxyamide] | 0.154 | 0.011 | 
12 | CN(C(C)(C)C(=O)NC1C2CC3CC1CC(O)(C3)C2)S(=O)(=O)c1ccccc1N (stereo not shown) [compound 225] | 0.083 | 0.011 | 
13 | COc1ccccc1S(=O)(=O)NC(C)(C)C(=O)NC1C2CC3CC1CC(C(N)=O)(C3)C2 (stereo not shown) [compound 226, 4-[2-(2-methoxy-benzenesulfonylamino)-2-methyl-propionylamino]-adamantane-1-carboxylic acid amide] | 0.038 | 0.062 | 
14 | CCN(CC)C(=O)C12CC3CC(C1)C(NC(=O)C(C)(C)NS(=O)(=O)c1ccccc1Cl)C(C3)C2 (stereo not shown) [compound 227, 4-[2-(2-chloro-benzenesulfonylamino)-2-methyl-propionylamino]-adamantane-1-carboxylic acid diethylamide] | > 2.5 | > 2.5 | 
15 | CC(C)NC(=O)C12CC3CC(C1)C(NC(=O)C(C)(C)NS(=O)(=O)c1ccccc1Br)C(C3)C2 (stereo not shown) [compound 228, 4-[2-(2-bromo-benzenesulfonylamino)-2-methyl-propionylamino]-adamantane-1-carboxylic acid isopropylamide] | > 2.5 | > 2.5 | 
16 | CC(C)(NS(=O)(=O)c1ccccc1Br)C(=O)NC1C2CC3CC1CC(C(=O)NC1CC1)(C3)C2 (stereo not shown) [compound 229, 4-[2-(2-bromo-benzenesulfonylamino)-2-methyl-propionylamino]-adamantane-1-carboxylic acid cyclopropylamide] | > 2.5 | > 2.5 | 
17 | CC(C)(NS(=O)(=O)c1ccccc1Cl)C(=O)NC1C2CC3CC1CC(C(=O)NCCO)(C3)C2 (stereo not shown) [compound 231, 4-[2-(2-chloro-benzenesulfonylamino)-2-methyl-propionylamino]-adamantane-1-carboxylic acid ethanolamide] | > 2.5 | > 2.5 | 
18 | O=C(NCCO)C12CC3CC(C1)C(NC(=O)C1(NS(=O)(=O)c4ccccc4Cl)CCC1)C(C3)C2 (stereo not shown) [compound 232] | > 2.5 | > 2.5 | 
19 | CC(C)(NS(=O)(=O)c1ccccc1Cl)C(=O)NC1C2CC3CC1CC(C(=O)NC1CCCCC1)(C3)C2 (stereo not shown) [compound 233, 4-[2-(2-chloro-benzenesulfonylamino)-2-methyl-propionylamino]-adamantane-1-carboxylic acid cyclohexylamide] | > 2.5 | > 2.5 | 
20 | CC(C)NC(=O)C12CC3CC(C1)C(NC(=O)C(C)(C)NS(=O)(=O)c1ccccc1Cl)C(C3)C2 (stereo not shown) [compound 235, 4-[2-(2-chloro-benzenesulfonylamino)-2-methyl-propionylamino]-adamantane-1-carboxylic acid isopropylamide] | > 2.5 | > 2.5 | 
21 | CC(C)NC(=O)C12CC3CC(C1)C(NC(=O)C1(NS(=O)(=O)c4ccccc4Cl)CCC1)C(C3)C2 (stereo not shown) [compound 236, 4-({1-[(2-chloro-benzenesulfonyl)-methyl-amino]-cyclobutanecarbonyl}-amino)-adamantane-1-carboxylic acid-isopropylamide] | > 2.5 | > 2.5 | 
22 | CNC(=O)C12CC3CC(C1)C(NC(=O)C(C)(C)NS(=O)(=O)c1ccccc1Cl)C(C3)C2 (stereo not shown) [compound 237, 4-[2-(2-chloro-benzenesulfonylamino)-2-methyl-propionylamino]-adamantane-1-carboxylic acid methylamide] | 0.437 | 1.5 | 
23 | CNC(=O)C12CC3CC(C1)C(NC(=O)C1(NS(=O)(=O)c4ccccc4Cl)CCC1)C(C3)C2 (stereo not shown) [compound 238] | > 2.5 | > 2.5 | 
24 | N-4-(2-methoxy-6-fluoro-N-ethylphenylsulfonamido)-2-methylpropanamido)adamantane-1-carboxyamide [compound 214] | 0.006 | 0.012 | 
